# Measured values published in PubChem BioAssay (NCI).
#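 Protocol summary: plate cells (96-well), add compound at 5 concentrations, incubate 48 h, interpolate endpoints linearly. TGI denotes the concentration required for complete inhibition of growth.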
# Key:
# Assay in all cases: NCI anticancer screen, dose series, 48 h
# [1] = system: 786-0 renal
# [2] = system: A498 renal
# [3] = system: A549 NSCLC
# [4] = system: ACHN renal
# [5] = system: CAKI-1 renal
# [6] = system: CCRF-CEM leukemia
# [7] = system: COLO 205 colon
# [8] = system: DU-145 prostate
# [9] = system: EKVX NSCLC
# [10] = system: HCT-116 colon
# [11] = system: HCT-15 colon
# [12] = system: HL-60(TB) leukemia
# [13] = system: HOP-62 NSCLC
# [14] = system: HOP-92 NSCLC
# [15] = system: HS 578T breast
# [16] = system: HT29 colon
# [17] = system: K-562 leukemia
# [18] = system: KM12 colon
# [19] = system: LOX IMVI melanoma
# [20] = system: M14 melanoma
# [21] = system: MALME-3M melanoma
# [22] = system: MCF7 breast
# [23] = system: MDA-MB-231 breast
# [24] = system: MDA-MB-435
# [25] = system: MDA-N
# [26] = system: MOLT-4 leukemia
# [27] = system: NCI-H226 lung
# [28] = system: NCI-H23 lung
# [29] = system: NCI-H460 lung
# [30] = system: NCI/ADR-RES ovarian
# [31] = system: OVCAR-3 ovarian
# [32] = system: OVCAR-4 ovarian
# [33] = system: OVCAR-5 ovarian
# [34] = system: PC-3 prostate
# [35] = system: RPMI-8226 leukemia
# [36] = system: RXF 393 renal
# [37] = system: SF-268 CNS
# [38] = system: SF-295 CNS
# [39] = system: SF-539 CNS
# [40] = system: SK-MEL-2 melanoma
# [41] = system: SK-MEL-28 melanoma
# [42] = system: SK-MEL-5 melanoma
# [43] = system: SK-OV-3 ovarian
# [44] = system: SN12C renal
# [45] = system: SNB-19 CNS
# [46] = system: SNB-75 CNS
# [47] = system: SR leukemia
# [48] = system: SW-620 colon
# [49] = system: T-47D breast
# [50] = system: TK-10 renal
# [51] = system: U251 CNS
# [52] = system: UACC-257 melanoma
# [53] = system: UACC-62 melanoma
# [54] = system: UO-31 renal
# [55] = system: BT-549 breast
# [56] = system: HCC-2998 colon
# [57] = system: IGROV1 ovarian
# [58] = system: NCI-H522 lung
# [59] = system: OVCAR-8 ovarian
smiles,measurement,setting,value
COc1ccc(NC(=O)c2cc(NC(=O)/C=C/c3ccccc3)c(OC)c(OC)c2)cc1,TGI,[1],> 100 µM
same,TGI,[2],> 100 µM
same,TGI,[3],> 100 µM
same,TGI,[4],> 100 µM
same,TGI,[5],> 100 µM
same,TGI,[6],> 100 µM
same,TGI,[7],> 100 µM
same,TGI,[8],> 100 µM
same,TGI,[9],> 100 µM
same,TGI,[10],> 100 µM
same,TGI,[11],> 100 µM
same,TGI,[12],45.4 µM
same,TGI,[13],> 100 µM
same,TGI,[14],> 100 µM
same,TGI,[15],> 100 µM
same,TGI,[16],> 100 µM
same,TGI,[17],> 100 µM
same,TGI,[18],> 100 µM
same,TGI,[19],> 100 µM
same,TGI,[20],> 100 µM
same,TGI,[21],99.6 µM
same,TGI,[22],> 100 µM
same,TGI,[23],> 100 µM
same,TGI,[24],9.38 µM
same,TGI,[25],16.5 µM
same,TGI,[26],> 100 µM
same,TGI,[27],> 100 µM
same,TGI,[28],> 100 µM
same,TGI,[29],> 100 µM
same,TGI,[30],> 100 µM
same,TGI,[31],> 100 µM
same,TGI,[32],> 100 µM
same,TGI,[33],> 100 µM
same,TGI,[34],> 100 µM
same,TGI,[35],> 100 µM
same,TGI,[36],> 100 µM
same,TGI,[37],> 100 µM
same,TGI,[38],> 100 µM
same,TGI,[39],> 100 µM
same,TGI,[40],7.27 µM
same,TGI,[41],> 100 µM
same,TGI,[42],> 100 µM
same,TGI,[43],> 100 µM
same,TGI,[44],> 100 µM
same,TGI,[45],> 100 µM
same,TGI,[46],48.5 µM
same,TGI,[47],> 100 µM
same,TGI,[48],> 100 µM
same,TGI,[49],> 100 µM
same,TGI,[50],> 100 µM
same,TGI,[51],> 100 µM
same,TGI,[52],> 100 µM
same,TGI,[53],> 100 µM
same,TGI,[54],5.62 µM
COc1c2c(cc3oc(=O)ccc13)OC(C)(C)C=C2,TGI,[1],63.8 µM
same,TGI,[3],> 125 µM
same,TGI,[4],70 µM
same,TGI,[55],70.2 µM
same,TGI,[5],29 µM
same,TGI,[7],73.6 µM
same,TGI,[8],55.9 µM
same,TGI,[9],> 125 µM
same,TGI,[56],46.3 µM
same,TGI,[10],40.8 µM
same,TGI,[11],65.5 µM
same,TGI,[12],45.2 µM
same,TGI,[13],> 125 µM
same,TGI,[14],34.1 µM
same,TGI,[15],> 125 µM
same,TGI,[16],> 125 µM
same,TGI,[57],75.7 µM
same,TGI,[17],> 125 µM
same,TGI,[18],48.5 µM
same,TGI,[19],41.8 µM
same,TGI,[20],48.4 µM
same,TGI,[21],87.8 µM
same,TGI,[22],57.8 µM
same,TGI,[23],76.2 µM
same,TGI,[24],68.7 µM
same,TGI,[25],91.7 µM
same,TGI,[26],59.1 µM
same,TGI,[27],> 125 µM
same,TGI,[28],60.1 µM
same,TGI,[29],62.2 µM
same,TGI,[58],63.9 µM
same,TGI,[30],70.6 µM
same,TGI,[31],> 125 µM
same,TGI,[59],75.1 µM
same,TGI,[35],87.6 µM
same,TGI,[37],> 125 µM
same,TGI,[38],> 125 µM
same,TGI,[39],> 125 µM
same,TGI,[40],51.1 µM
same,TGI,[41],75.9 µM
same,TGI,[42],41.8 µM
same,TGI,[43],> 125 µM
same,TGI,[44],100 µM
same,TGI,[45],> 125 µM
same,TGI,[46],56.6 µM
same,TGI,[47],44.6 µM
same,TGI,[48],84.6 µM
same,TGI,[49],23.6 µM
same,TGI,[50],> 125 µM
same,TGI,[51],78.5 µM
same,TGI,[52],85.2 µM
same,TGI,[53],42.2 µM
same,TGI,[54],73.6 µM
